The record followed here is patent US20260308186A1, “STAT DEGRADERS AND USES THEREOF” (Recludix Pharma, Inc., priority 2023, published 2026).

One assay deals with T1, STAT3 (Homo sapiens, UniProt P40763).
T1 construct: Recombinant STAT3 protein (STAT3(G127-1722))
In words: STAT3 Fluorescence Polarization (FP) Assay. The assay is classed as binding. The following applies: recombinant STAT3 25 nM; probe 5-FAM-GpYLPQTV-NH2 2 nM; 45 min, room temperature; read-out: STAT3 FP IC50.

In another assay the target is T2, STAT6 (Homo sapiens, UniProt P42226).
T2 construct: Recombinant STAT6 protein (STAT6(W123-T658))
T2 sequence (P42226 123-658): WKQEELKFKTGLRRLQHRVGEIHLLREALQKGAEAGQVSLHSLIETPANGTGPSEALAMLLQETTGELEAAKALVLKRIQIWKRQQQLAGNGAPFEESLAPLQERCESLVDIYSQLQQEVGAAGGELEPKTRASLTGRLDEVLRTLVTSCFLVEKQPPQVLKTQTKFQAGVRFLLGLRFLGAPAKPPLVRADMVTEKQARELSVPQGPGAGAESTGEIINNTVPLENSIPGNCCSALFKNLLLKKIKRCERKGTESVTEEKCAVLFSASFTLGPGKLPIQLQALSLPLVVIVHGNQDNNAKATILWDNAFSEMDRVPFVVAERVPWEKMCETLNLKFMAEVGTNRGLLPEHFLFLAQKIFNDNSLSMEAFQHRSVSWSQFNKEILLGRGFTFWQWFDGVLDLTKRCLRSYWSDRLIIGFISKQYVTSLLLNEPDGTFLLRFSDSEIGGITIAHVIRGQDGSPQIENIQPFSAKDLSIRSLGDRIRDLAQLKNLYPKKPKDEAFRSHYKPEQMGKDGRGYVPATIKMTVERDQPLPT
Briefly: STAT6 Fluorescence Polarization (FP) Assay. The assay is classed as binding. The following applies: recombinant STAT6(W123-T658) 250 nM; probe 5-FAM-Ap[…]-NH2 2 nM; 45 min, room temperature; read-out: STAT6 FP IC50. The method, then: STAT6 Fluorescence Polarization (FP) Assay
An FP assay was developed to determine IC50 values for test substances. Recombinant STAT6 protein (STAT6(W123-T658)) at 250 nM was combined with a fluorescently labeled, phosphotyrosine peptide probe (5-FAM-Ap[…]-NH2) at 2 nM in FP buffer (10 mM HEPES pH 7.4, 50 mM NaCl, 1 mM EDTA, 0.05% Tween 20, 2 mM DTT), 50 μL of STAT6-probe mixture was added to serial diluted compounds in black, 96-well plates (Greiner BioOne 655076) to a final concentration of 1% DMSO. Reaction components were mixed, and FP was measured after 45-minute incubation at room temperature using a Tecan Spark multimode plate reader. FP signal (mP) was plotted against the log concentration of the test substances and IC50 values were calculated by nonlinear regression analysis using GraphPad Prism software. For STAT6 FP assay. A=≤300 nM; B=>300-3000 nM; C=>3-30 μM; and D=>30 μM.
In general terms: In fluorescence polarisation assays a small probe gives low polarisation when free and higher when bound to something large.

A further assay deals with T3, pSTAT6 (Homo sapiens, UniProt P42226).
T3 construct: pY641-STAT6 MSD read-out
T3 sequence (P42226 1-847): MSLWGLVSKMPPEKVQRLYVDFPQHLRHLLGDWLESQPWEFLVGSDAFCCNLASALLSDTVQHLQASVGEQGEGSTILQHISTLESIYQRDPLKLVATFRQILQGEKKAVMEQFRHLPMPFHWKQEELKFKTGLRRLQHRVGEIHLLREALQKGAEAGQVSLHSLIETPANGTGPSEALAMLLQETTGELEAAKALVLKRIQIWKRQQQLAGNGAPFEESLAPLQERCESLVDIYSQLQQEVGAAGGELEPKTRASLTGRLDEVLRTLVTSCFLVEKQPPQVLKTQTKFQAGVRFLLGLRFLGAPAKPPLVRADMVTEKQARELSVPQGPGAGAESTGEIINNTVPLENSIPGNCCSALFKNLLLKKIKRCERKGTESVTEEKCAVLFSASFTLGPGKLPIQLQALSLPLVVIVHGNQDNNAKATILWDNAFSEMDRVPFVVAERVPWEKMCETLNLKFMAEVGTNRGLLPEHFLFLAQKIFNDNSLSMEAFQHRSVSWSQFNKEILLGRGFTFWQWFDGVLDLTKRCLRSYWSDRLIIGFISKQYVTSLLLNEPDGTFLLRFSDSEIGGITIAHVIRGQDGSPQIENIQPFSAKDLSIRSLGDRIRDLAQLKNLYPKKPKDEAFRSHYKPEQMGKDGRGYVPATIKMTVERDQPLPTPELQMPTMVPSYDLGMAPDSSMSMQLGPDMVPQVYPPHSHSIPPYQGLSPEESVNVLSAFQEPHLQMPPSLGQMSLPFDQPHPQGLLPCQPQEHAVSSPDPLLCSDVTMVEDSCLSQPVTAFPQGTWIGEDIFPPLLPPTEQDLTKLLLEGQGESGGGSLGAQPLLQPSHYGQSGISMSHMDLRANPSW
In words: MSD-pSTAT-PBMC Assay, pSTAT6 (IL-4 stimulated PBMC). The assay is classed as cell-based. To be noted: compound 3 hrs, then 1 ng/mL IL-4 for 10 min, pY641-STAT6, read-out: pSTAT6 IC50. A digest of the protocol: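 Human PBMC were recovered overnight, treated 3 h with compound, then stimulated for 10 min with 10 ng/mL IL-6 (pSTAT3) or 1 ng/mL IL-4 (pSTAT6). Lysates were read by MSD sandwich immunoassay, with total STAT capture and pY705-STAT3 or pY641-STAT6 detection. Signal minus unstimulated wells was normalized to DMSO, and IC50 came from a variable-slope fit.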

Another assay concerns the target T4, pSTAT3 (Homo sapiens, UniProt P40763).
T4 construct: pY705-STAT3 MSD read-out
Briefly: MSD-pSTAT-PBMC Assay, pSTAT3 (IL-6 stimulated PBMC). The assay is classed as cell-based. To be noted: read-out: pSTAT3 IC50, compound 3 hrs, then 10 ng/mL IL-6 for 10 min, pY705-STAT3. The text has this:
Cryopreserved Peripheral Blood Mononuclear Cells (PBMC) are from AllCells. Recombinant Human IL-4 and IL-6 are from Peprotech. Mouse monoclonal anti-STAT3 antibody, rabbit monoclonal anti-pY705-STAT3 antibody, rabbit monoclonal Anti-pY641-STAT6 antibody, and lysis buffer are from Cell Signaling Technology (CST). Mouse monoclonal anti-STAT6 antibody is from BioLegend. Assay plates, blocker, and anti-rabbit secondary antibody are from Meso Scale Discovery (MSD).
Cryopreserved PBMCs were thawed out and allowed to recover overnight in IMDM+10% heat-inactivated FBS prior to plating 50,000 (STAT3) or 25,000 (STAT6) cells per well in 96-well U-bottom tissue culture plates. Cells were treated with compound for 3 hrs. then stimulated with 10 ng/mL IL-6 (STAT3) or 1 ng/mL IL-4 (STAT6) for 10 min. Cells were then spun down and washed with ice-cold PBS prior to lysing the cell pellet with 1× lysis buffer (CST) with 1×HALT protease and phosphatase inhibitor cocktail (Thermo). Lysates were transferred to and incubated overnight at 4° C. with shaking in QuickPlex 96-well high bind assay plates (MSD) pre-coated overnight with 30 μL per well of 0.6 μg/mL mouse monoclonal anti-STAT3 antibody (STAT3) or 2 μg/mL mouse monoclonal anti-STAT6 antibody (STAT6) in 1×PBS, and pre-blocked for 1 hour with 3% Blocker-A (MSD). Captured protein in the assay plates were then washed and probed with 25 μL per well of 0.25 μg/ml rabbit monoclonal anti-pY705-STAT3 antibody (STAT3) or 0.18 μg/ml rabbit monoclonal Anti-pY641-STAT6 antibody (STAT6) in 1% Blocker-A for 1 hour at room temperature with shaking, then washed and probed with 25 ul per well of 1 ug/ml Sulfo-TAG Labeled Goat Anti-Rabbit Antibody (MSD) in 1% Blocker-A for 1 hour at room temperature with shaking. Assay plates were then washed and 150 μL of 1× Read Buffer-T (MSD) was added to each well prior to reading on an SQ120 MSD Plate Reader. Assay signal from each sample was subtracted by the signal from unstimulated control wells and normalized to DMSO control wells. IC50 values were calculated using Graph Pad Prism Dose-Response Nonlinear Regression with variable slope. For both pSTAT3 and pSTAT6 A=≤100 nM; B=>100-1000 nM; C=>1000-3000 nM; and D=>3 μM.

A value given as a limit tells only on which side of the number the result lay.

T1 sequence (P40763 127-722 limits assumed): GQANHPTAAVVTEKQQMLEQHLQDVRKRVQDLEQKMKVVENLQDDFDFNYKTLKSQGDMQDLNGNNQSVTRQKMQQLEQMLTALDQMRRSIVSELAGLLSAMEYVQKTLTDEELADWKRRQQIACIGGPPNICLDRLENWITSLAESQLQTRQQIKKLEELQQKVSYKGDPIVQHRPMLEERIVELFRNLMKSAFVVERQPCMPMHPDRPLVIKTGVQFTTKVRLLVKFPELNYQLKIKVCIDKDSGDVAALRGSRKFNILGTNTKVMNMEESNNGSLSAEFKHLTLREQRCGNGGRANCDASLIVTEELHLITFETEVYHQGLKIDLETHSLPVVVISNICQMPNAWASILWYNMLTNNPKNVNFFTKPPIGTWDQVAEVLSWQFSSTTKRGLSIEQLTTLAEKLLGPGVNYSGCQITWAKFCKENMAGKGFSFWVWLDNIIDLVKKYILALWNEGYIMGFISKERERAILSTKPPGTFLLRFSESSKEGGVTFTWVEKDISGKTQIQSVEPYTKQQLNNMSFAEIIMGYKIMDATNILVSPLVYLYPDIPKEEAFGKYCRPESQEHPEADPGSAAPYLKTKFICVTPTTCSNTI
T4 sequence (P40763 whole entry): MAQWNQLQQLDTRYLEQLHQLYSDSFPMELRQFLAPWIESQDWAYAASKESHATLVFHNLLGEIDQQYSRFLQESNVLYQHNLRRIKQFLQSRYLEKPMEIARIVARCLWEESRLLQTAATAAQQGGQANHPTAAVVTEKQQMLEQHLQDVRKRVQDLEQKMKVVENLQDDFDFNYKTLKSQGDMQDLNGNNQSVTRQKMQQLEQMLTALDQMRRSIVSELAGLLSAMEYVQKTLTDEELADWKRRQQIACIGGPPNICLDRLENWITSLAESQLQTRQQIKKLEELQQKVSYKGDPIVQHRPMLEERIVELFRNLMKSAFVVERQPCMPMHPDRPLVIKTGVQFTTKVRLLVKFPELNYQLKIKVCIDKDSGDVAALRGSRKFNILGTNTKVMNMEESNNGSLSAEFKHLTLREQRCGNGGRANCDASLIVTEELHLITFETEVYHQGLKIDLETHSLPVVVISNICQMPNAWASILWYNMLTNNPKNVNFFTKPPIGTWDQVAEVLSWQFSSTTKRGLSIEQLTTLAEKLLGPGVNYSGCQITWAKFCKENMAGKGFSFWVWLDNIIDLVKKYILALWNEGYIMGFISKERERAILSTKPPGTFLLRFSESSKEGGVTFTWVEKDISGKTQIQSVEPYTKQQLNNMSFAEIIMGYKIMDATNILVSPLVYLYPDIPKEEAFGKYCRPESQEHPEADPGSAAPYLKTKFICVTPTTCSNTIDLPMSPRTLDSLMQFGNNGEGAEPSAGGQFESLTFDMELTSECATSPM

For `Cc1ccc2onc(C(=O)N3CC[C@H]4CC[C@@H](C(=O)N5CCN(c6ccc7c(c6)[nH]c(=O)n7C6CCC(=O)NC6=O)CC5)N4C(=O)[C@@H](NC(=O)c4ccc5ccc(C(F)(F)P(=O)(O)O)cc5c4)C3)c2c1` (stereo partly drawn) [Compound 34, ((7-(((5S,8S,10aR)-8-(4-(1-(2,6-dioxopiperidin-3-yl)-2-oxo-2,3-dihydro-1H-benzo[d]imidazol-5-yl)piperazine-1-carbonyl)-3-(5-methylbenzo[d]isoxazole-3-carbonyl)-6-oxodecahydropyrrolo[1,2-a][1,5]diazocin-5-yl)carbamoyl)naphthalen-2-yl)difluoromethyl)phosphonic acid], the figures for the IC50 at STAT3, on STAT6 and on pSTAT6 were 1 to 10 µM, less than 0.3 µM and greater than 3 µM, respectively.

Turning to `Cc1ccc2onc(C(=O)N3CC[C@H]4CC[C@@H](C(=O)Nc5cccc6c5CN(C5CCC(=O)NC5=O)C6=O)N4C(=O)[C@@H](NC(=O)c4ccc5ccc(C(F)(F)P(=O)(O)O)cc5c4)C3)c2c1` (stereo partly drawn) [Compound 35, ((7-(((5S,8S,10aR)-8-((2-(2,6-dioxopiperidin-3-yl)-1-oxoisoindolin-4-yl)carbamoyl)-3-(5-methylbenzo[d]isoxazole-3-carbonyl)-6-oxodecahydropyrrolo[1,2-a][1,5]diazocin-5-yl)carbamoyl)naphthalen-2-yl)difluoromethyl)phosphonic acid], the values for the IC50 at STAT3, on STAT6 and at pSTAT6 were greater than 10 µM, less than 0.3 µM and greater than 3 µM, respectively.

For the molecule `Cc1ccc2onc(C(=O)N3CC[C@H]4CC[C@@H](C(=O)N5CCN(c6cccc7c6[nH]c(=O)n7C6CCC(=O)NC6=O)CC5)N4C(=O)[C@@H](NC(=O)c4ccc5ccc(C(F)(F)P(=O)(O)O)cc5c4)C3)c2c1` (stereo partly drawn) [Compound 36, ((7-(((5S,8S,10aR)-8-(4-(1-(2,6-dioxopiperidin-3-yl)-2-oxo-2,3-dihydro-1H-benzo[d]imidazol-4-yl)piperazine-1-carbonyl)-3-(5-methylbenzo[d]isoxazole-3-carbonyl)-6-oxodecahydropyrrolo[1,2-a][1,5]diazocin-5-yl)carbamoyl)naphthalen-2-yl)difluoromethyl)phosphonic acid], the IC50 is 1 to 10 µM at STAT3, less than 0.3 µM at STAT6 and greater than 3 µM on pSTAT6.

Turning to `Cc1ccc2onc(C(=O)N3CC[C@H]4CC[C@@H](C(=O)N5CCN(c6ccc7[nH]c(=O)n(C8CCC(=O)NC8=O)c7c6)CC5)N4C(=O)[C@@H](NC(=O)c4ccc5ccc(C(F)(F)P(=O)(O)O)cc5c4)C3)c2c1` (stereo partly drawn) [Compound 37, ((7-(((5S,8S,10aR)-8-(4-(3-(2,6-dioxopiperidin-3-yl)-2-oxo-2,3-dihydro-1H-benzo[d]imidazol-5-yl)piperazine-1-carbonyl)-3-(5-methylbenzo[d]isoxazole-3-carbonyl)-6-oxodecahydropyrrolo[1,2-a][1,5]diazocin-5-yl)carbamoyl)naphthalen-2-yl)difluoromethyl)phosphonic acid], the IC50 on STAT3 is greater than 10 µM; on STAT6, less than 0.3 µM; on pSTAT6, greater than 3 µM.

Consider `CCCC(=O)SCCOP(=O)(OCCSC(=O)CCC)C(F)(F)c1ccc2sc(C(=O)N[C@H]3CN(C(=O)CCCCCC#Cc4cccc5c4CN(C4CCC(=O)NC4=O)C5=O)CC[C@H]4CC[C@@H](C(=O)N5CC(c6cnccc6N(C)C)C5)N4C3=O)cc2c1` (stereo partly drawn) [Compound 38, S,S′-(((((2-(((5S,8S,10aR)-8-(3-(4-(dimethylamino)pyridin-3-yl)azetidine-1-carbonyl)-3-(8-(2-(2,6-dioxopiperidin-3-yl)-1-oxoisoindolin-4-yl)oct-7-ynoyl)-6-oxodecahydropyrrolo[1,2-a][1,5]diazocin-5-yl)carbamoyl)benzo[b]thiophen-5-yl)difluoromethyl)phosphoryl)bis(oxy))bis(ethane-2,1-diyl)) dibutanethioate], for which the IC50 at pSTAT3 was less than 0.1 µM.

For the molecule `Cc1ccc2onc(C(=O)N3CC[C@H]4CC[C@@H](C(=O)N(C)CCCCCCC#Cc5cccc6c5CN(C5CCC(=O)NC5=O)C6=O)N4C(=O)[C@@H](NC(=O)c4ccc5ccc(C(F)P(=O)(O)O)cc5c4)C3)c2c1` (stereo partly drawn) [Compound 40, ((7-(((5S,8S,10aR)-8-((8-(2-(2,6-dioxopiperidin-3-yl)-1-oxoisoindolin-4-yl)oct-7-yn-1-yl)(methyl)carbamoyl)-3-(5-methylbenzo[d]isoxazole-3-carbonyl)-6-oxodecahydropyrrolo[1,2-a][1,5]diazocin-5-yl)carbamoyl)naphthalen-2-yl)fluoromethyl)phosphonic acid], the IC50 was greater than 10 µM at STAT3, less than 0.3 µM at STAT6 and greater than 3 µM on pSTAT6.
